Among the test systems are A498; ACHN; UACC-257; M14; HCC 2998; PC-3; LOX IMVI; NCI-H226; HT-29; HOP-62; SF-268; SK-MEL-5; SK-OV-3; SF-539; SK-MEL-28; HL-60; MDA-N; UACC-62; SNB-19; Malme-3M.
Test in all cases: NCI anticancer screen, dose series, 48 h

Here are results for four compounds from ChEMBL document CHEMBL1201862, “PubChem BioAssay data set” (2004).

Structures are written as SMILES.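 1) Cells in 96-well plates. 2) Compound, 48 h, 5 concentrations. 3) Linear interpolation between surrounding doses. 4) Unreached endpoint = highest concentration. GI50 = concentration required for 50% inhibition of growth.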 Activity calls are given as the source filed them. Rule as the data show it: active = GI50 up to about 1.1 µM and inactive = higher.

Take `O=C1/C(=C/c2ccc(Cl)cc2)N=C(c2ccccc2)N1c1nc2ccccc2s1`: the GI50 was 30.5 µM (inactive) in the assay on A498; 62.5 µM (inactive) in the assay on ACHN; 35.6 µM (inactive) in the assay with UACC-257; 69.8 µM (inactive) in the assay with M14; 42.7 µM (inactive) with HCC 2998; 29.9 µM (inactive) in the assay on PC-3. Besides, the GI50 in the assay on LOX IMVI was 43.6 µM (inactive); with NCI-H226, 49.7 µM (inactive); in the assay with HT-29 it was 64.1 µM (inactive); in the assay on HOP-62 it was > 100 µM (inactive); in the assay on SF-268 it was 38.4 µM (inactive); in the assay on SK-MEL-5 it was 31.6 µM (inactive). The GI50 in the assay on SK-OV-3 is > 100 µM (inactive); in the assay with SF-539 it was > 100 µM (inactive); with SK-MEL-28, 52.6 µM (inactive); in the assay on HL-60, 4.03 µM (inactive); with MDA-N, 39 µM (inactive).

On to `C/C(=C\c1csc(C)n1)[C@@H]1C[C@@H]2O[C@@H]2CCC[C@H](C)[C@H](O)[C@@H](C)C(=O)C(C)(C)[C@@H](O)CC(=O)O1` [EPOTHILONE A], for which the GI50 in the assay with A498, in the assay on ACHN, with UACC-257, with M14, with HCC 2998 and with UACC-62 was < 0.0001 µM (active) each time. The GI50 in the assay on PC-3, in the assay on LOX IMVI, in the assay with NCI-H226, with HT-29, in the assay with HOP-62 and in the assay with SF-268 was < 0.0001 µM (active) throughout. The GI50 in the assay with SK-MEL-5, with SK-OV-3, in the assay on SF-539, with SNB-19, with HL-60 and with MDA-N was < 0.0001 µM (active) throughout.

Turning to `CC(=O)O[C@@H]1[C@H]2[C@@H](OC(=O)c3ccccc3)[C@@H](C)C[C@]2(O)[C@H](OC(C)=O)[C@@]2(C)[C@@H]3CC(C)(C)C(=O)[C@]3(OC(C)=O)C[C@@]12C`, the GI50 in the assay on A498 was 12.8 µM (inactive); with ACHN, > 25 µM (inactive); in the assay on UACC-257, > 25 µM (inactive); in the assay with M14, 20.8 µM (inactive); in the assay on HCC 2998, 6.9 µM (inactive); in the assay on UACC-62, > 25 µM (inactive). Further, the GI50 in the assay with PC-3 was 17.7 µM (inactive); in the assay on LOX IMVI, > 25 µM (inactive); in the assay with NCI-H226, > 25 µM (inactive); in the assay on HOP-62, 10.9 µM (inactive); in the assay on SF-268, > 25 µM (inactive); in the assay with SK-MEL-5, 18.7 µM (inactive). Further, the GI50 with SK-OV-3 was > 25 µM (inactive); with SF-539, 13.2 µM (inactive); in the assay on SNB-19 it was > 25 µM (inactive); with HL-60, 1.35 µM (inactive); with MDA-N it was 8.91 µM (inactive).

As for `CCOC(=O)CCc1cccc2c1oc1c(CCNC(=O)OCC3c4ccccc4-c4ccccc43)cccc12`, the GI50 was > 100 µM (inactive) in the assay with A498; 44.3 µM (inactive) in the assay on ACHN; 41.9 µM (inactive) with UACC-257; 38.5 µM (inactive) in the assay with M14; > 100 µM (inactive) in the assay with HCC 2998; 16.4 µM (inactive) with UACC-62. For the same compound, the GI50 in the assay on PC-3 was 35.2 µM (inactive); in the assay with LOX IMVI, 75.9 µM (inactive); in the assay on NCI-H226, 86.7 µM (inactive); with HOP-62, 16.2 µM (inactive); with SF-268 it was 25.2 µM (inactive); in the assay with SK-MEL-5 it was 29.2 µM (inactive). The GI50 with SK-OV-3 was 49 µM (inactive); in the assay with SNB-19, 19.9 µM (inactive); in the assay on Malme-3M it was 18.1 µM (inactive); in the assay on SK-MEL-28 it was > 100 µM (inactive); in the assay with HL-60, > 100 µM (inactive); in the assay on MDA-N, > 100 µM (inactive).
